Tests used:
[1] = target: T1, Solute carrier family 22 member 12 (Homo sapiens, UniProt Q96S37); test: Inhibition of URAT1 (unknown origin)-mediated 14C-uric acid uptake expressed in HEK293 cells using 14C-uric acid as substrate preincubated for 30 mins followed by substrate addition and measured after 15 mins by liquid scintillation counting analysis; assay type: cell-based
T1 sequence (Q96S37 whole entry): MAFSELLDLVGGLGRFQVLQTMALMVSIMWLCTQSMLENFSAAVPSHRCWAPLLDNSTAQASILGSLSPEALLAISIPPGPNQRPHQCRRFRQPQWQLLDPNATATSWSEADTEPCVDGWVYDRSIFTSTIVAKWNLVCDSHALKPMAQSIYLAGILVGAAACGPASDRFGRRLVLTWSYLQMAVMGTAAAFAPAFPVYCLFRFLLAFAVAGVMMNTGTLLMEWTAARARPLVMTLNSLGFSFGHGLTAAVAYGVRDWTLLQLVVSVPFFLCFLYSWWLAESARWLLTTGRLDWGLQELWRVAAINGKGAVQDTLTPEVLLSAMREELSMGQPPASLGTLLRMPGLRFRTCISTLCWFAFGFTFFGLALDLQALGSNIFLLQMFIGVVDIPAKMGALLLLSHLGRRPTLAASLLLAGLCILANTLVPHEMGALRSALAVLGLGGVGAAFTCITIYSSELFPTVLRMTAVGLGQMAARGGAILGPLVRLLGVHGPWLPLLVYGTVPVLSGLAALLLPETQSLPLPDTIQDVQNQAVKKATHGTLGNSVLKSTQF

[2] = target: T2, Solute carrier family 22 member 6 (Homo sapiens, UniProt Q4U2R8); test: Inhibition of OAT1 (unknown origin) expressed in HEK293 cells assessed as inhibition of 6-CFL uptake preincubated for 30 mins followed by incubation with 6-CFL and measured after 15 mins by fluorescence based analysis; assay type: toxicity, cell-based
T2 sequence (Q4U2R8 whole entry): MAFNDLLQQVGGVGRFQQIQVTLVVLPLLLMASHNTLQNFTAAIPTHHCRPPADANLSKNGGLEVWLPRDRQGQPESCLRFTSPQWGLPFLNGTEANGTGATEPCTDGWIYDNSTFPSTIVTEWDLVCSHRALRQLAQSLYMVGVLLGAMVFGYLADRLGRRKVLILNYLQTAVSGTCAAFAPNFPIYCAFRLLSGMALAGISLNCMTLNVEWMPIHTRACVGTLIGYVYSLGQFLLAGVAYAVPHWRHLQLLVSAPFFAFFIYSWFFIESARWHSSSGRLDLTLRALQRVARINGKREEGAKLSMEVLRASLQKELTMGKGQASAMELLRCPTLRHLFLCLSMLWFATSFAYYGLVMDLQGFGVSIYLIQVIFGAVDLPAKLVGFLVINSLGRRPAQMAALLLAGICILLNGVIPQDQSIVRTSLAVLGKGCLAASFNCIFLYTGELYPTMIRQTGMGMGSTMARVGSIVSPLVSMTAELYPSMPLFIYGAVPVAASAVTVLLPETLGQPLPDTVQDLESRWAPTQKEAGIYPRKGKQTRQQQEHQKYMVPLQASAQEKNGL

[3] = target: T3, Solute carrier family 2, facilitated glucose transporter member 9 (Homo sapiens) (UniProt Q9NRM0); test: Inhibition of GLUT9 (unknown origin) expressed in HEK293T cells assessed as inhibition of uric acid-induced current at 10 uM by whole cell patch clamp technique; assay type: cell-based
T3 sequence (whole entry): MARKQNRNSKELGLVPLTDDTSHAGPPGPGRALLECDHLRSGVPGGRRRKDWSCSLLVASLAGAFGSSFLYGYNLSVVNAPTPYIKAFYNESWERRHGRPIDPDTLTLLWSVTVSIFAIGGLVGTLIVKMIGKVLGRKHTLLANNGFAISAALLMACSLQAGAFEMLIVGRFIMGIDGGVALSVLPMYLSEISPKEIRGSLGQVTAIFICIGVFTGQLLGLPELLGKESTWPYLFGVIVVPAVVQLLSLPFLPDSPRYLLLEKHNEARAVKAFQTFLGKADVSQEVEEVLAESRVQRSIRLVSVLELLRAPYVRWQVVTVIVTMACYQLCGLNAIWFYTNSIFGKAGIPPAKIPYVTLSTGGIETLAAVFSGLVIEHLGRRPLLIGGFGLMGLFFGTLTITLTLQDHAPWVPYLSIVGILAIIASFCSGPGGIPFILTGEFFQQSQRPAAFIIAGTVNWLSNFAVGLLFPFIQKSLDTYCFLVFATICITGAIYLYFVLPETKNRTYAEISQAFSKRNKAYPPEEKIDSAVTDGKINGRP

[4] = target: T4, Broad substrate specificity ATP-binding cassette transporter ABCG2 (Homo sapiens, UniProt Q9UNQ0); test: Inhibition of ABCG2 (unknown origin) expressed in HEK293 cells membrane vesicles assessed as inhibition of ATP-induced 14C-uric acid uptake preincubated for 15 mins followed by incubation with ATP and substrate for 5 mins by liquid scintillation counting analysis; assay type: toxicity, cell membranes, Membrane vesicle
T4 sequence (Q9UNQ0 whole entry): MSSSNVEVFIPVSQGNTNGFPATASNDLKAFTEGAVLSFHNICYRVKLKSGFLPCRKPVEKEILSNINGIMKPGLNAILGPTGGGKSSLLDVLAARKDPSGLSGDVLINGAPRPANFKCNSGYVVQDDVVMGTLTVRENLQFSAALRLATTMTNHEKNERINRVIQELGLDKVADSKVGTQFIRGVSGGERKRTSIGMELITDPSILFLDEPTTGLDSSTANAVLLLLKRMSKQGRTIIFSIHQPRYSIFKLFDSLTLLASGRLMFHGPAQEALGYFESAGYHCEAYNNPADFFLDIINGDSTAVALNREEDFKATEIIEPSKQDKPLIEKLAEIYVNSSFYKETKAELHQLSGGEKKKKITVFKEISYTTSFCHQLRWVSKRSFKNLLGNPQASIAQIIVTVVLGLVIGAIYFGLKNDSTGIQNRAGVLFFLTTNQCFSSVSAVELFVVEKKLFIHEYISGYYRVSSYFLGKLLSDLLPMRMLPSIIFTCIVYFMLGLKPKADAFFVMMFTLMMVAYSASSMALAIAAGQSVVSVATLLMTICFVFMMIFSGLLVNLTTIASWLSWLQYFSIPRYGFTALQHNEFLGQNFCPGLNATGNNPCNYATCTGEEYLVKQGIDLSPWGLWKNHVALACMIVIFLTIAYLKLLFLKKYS

| IC50 [1] [µM] | Structure (SMILES) | other results |
| --- | --- | --- |
| 15.1 | N#Cc1ccc(Oc2cnccc2SCc2ccc(-c3ccccc3C(=O)O)cc2)c2ccccc12 |  |
| 5.21 | CC(C)(Sc1ccncc1Oc1ccc(C#N)c2ccccc12)C(=O)O |  |
| 2.78 | N#Cc1ccc(Nc2cnccc2SCCCC(=O)O)c2ccccc12 |  |
| 1.66 | COc1cc(C(=O)O)ccc1CSc1ccncc1Nc1ccc(C#N)c2ccccc12 |  |
| 6.86 | N#Cc1ccc(Oc2cnccc2SCc2ccccc2C(=O)O)c2ccccc12 |  |
| 3.44 | N#Cc1ccc(Nc2cnccc2Sc2cccc([N+](=O)[O-])c2CC(=O)O)c2ccccc12 |  |
| 1.23 | N#Cc1ccc(Oc2cnccc2SCCCC(=O)O)c2ccccc12 | IC50 [2]: 41.3 µM; inhibition [3]: 15.2%; IC50 [4]: 27.9 µM |
| 6.97 | N#Cc1ccc(Oc2cnccc2SCC(=O)O)c2ccccc12 |  |
| 10.2 | N#Cc1ccc(Oc2cnccc2SCc2ccc(C(=O)O)cc2)c2ccccc12 |  |
| 4.12 | N#Cc1ccc(Nc2cnccc2Sc2ccc(Br)cc2CC(=O)O)c2ccccc12 |  |
| 4.25 | COc1ccc(Sc2ccncc2Nc2ccc(C#N)c3ccccc23)c(CC(=O)O)c1 |  |

The next lines start with the molecule.

| Structure (SMILES) | IC50 [1] [µM] | other results |
| --- | --- | --- |
| CN(c1cnccc1SCCCCC(=O)O)c1ccc(C#N)c2ccccc12 | 3.58 |  |
| CN(c1cnccc1SCCCCCC(=O)O)c1ccc(C#N)c2ccccc12 | 3.76 |  |
| COc1cc(C(=O)O)ccc1CSc1ccncc1Oc1ccc(C#N)c2ccccc12 | 16.4 |  |
| N#Cc1ccc(Oc2cnccc2SCCCCCCC(=O)O)c2ccccc12 | 3.78 |  |
| N#Cc1ccc(Oc2cnccc2Sc2ccc(Br)cc2CC(=O)O)c2ccccc12 | 8.05 |  |
| N#Cc1ccc(Oc2cnccc2SCCCCCC(=O)O)c2ccccc12 | 4.74 |  |
| N#Cc1ccc(Oc2cnccc2SCc2cccc(C(=O)O)c2)c2ccccc12 | 6.58 |  |
| N#Cc1ccc(Nc2cnccc2SCCCCCCC(=O)O)c2ccccc12 | 5.75 |  |
| COc1ccc(Sc2ccncc2Oc2ccc(C#N)c3ccccc23)c(CC(=O)O)c1 | 14.2 |  |
| CN(c1cnccc1SCc1ccccc1C(=O)O)c1ccc(C#N)c2ccccc12 | 4.44 |  |
| CN(c1cnccc1SCCCCCCC(=O)O)c1ccc(C#N)c2ccccc12 | 4.64 |  |
| N#Cc1ccc(Nc2cnccc2SCCCCC(=O)O)c2ccccc12 | 2.28 |  |
| N#Cc1ccc(Oc2cnccc2SCCCCC(=O)O)c2ccccc12 | 4.22 |  |
| CN(c1cnccc1SCc1ccc(C(=O)O)cc1)c1ccc(C#N)c2ccccc12 | 6.25 |  |
| CN(c1cnccc1SCCCC(=O)O)c1ccc(C#N)c2ccccc12 | 2.58 |  |
| CN(c1cnccc1SCc1cccc(C(=O)O)c1)c1ccc(C#N)c2ccccc12 | 3.57 |  |
| N#Cc1ccc(Nc2cnccc2SCCCCCC(=O)O)c2ccccc12 | 4.24 |  |
| N#Cc1ccc(Oc2cnccc2Sc2cccc([N+](=O)[O-])c2CC(=O)O)c2ccccc12 | 10.5 |  |
| N#Cc1ccc(Nc2cnccc2SCc2ccc(C(=O)O)cc2)c2ccccc12 | 2.55 |  |
| N#Cc1ccc(Nc2cnccc2SCc2ccc(-c3ccccc3C(=O)O)cc2)c2ccccc12 | 4.68 |  |
| CN(c1cnccc1SCc1ccc(-c2ccccc2C(=O)O)cc1)c1ccc(C#N)c2ccccc12 | 4.57 |  |
| CN(c1cnccc1SC(C)(C)C(=O)O)c1ccc(C#N)c2ccccc12 | 5.36 |  |
| N#Cc1ccc(Nc2cnccc2SCc2cccc(C(=O)O)c2)c2ccccc12 | 1.96 |  |
| COc1cc(C(=O)O)ccc1CSc1ccncc1N(C)c1ccc(C#N)c2ccccc12 | 0.46 | IC50 [2]: 25.5 µM; inhibition [3]: 23.1%; IC50 [4]: 34.8 µM |
